In ChEMBL document CHEMBL1201862, “PubChem BioAssay data set” (2004):
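Following 48 hours of exposure in 96-well plates, responses at five concentrations were used to interpolate endpoints linearly. GI50 is the concentration that inhibits growth by half.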 Active and inactive are the calls of the source. No stated cut-off is given here; in the data, active = GI50 up to about 1.1 µM and inactive = higher.

Assays:
Assay in all cases: NCI-60 cell line screen, 48 h
786-0 = system: 786-0
A498 = system: A498
A549 = system: A549
ACHN = system: ACHN
CAKI-1 = system: CAKI-1
CCRF-CEM = system: CCRF-CEM
COLO 205 = system: COLO 205
DLD-1 = system: DLD-1
DMS-114 = system: DMS-114
DMS-273 = system: DMS-273
EKVX = system: EKVX
HCC 2998 = system: HCC 2998
HCT-116 = system: HCT-116
HCT-15 = system: HCT-15
HL-60 = system: HL-60
HOP-18 = system: HOP-18
HOP-62 = system: HOP-62
HOP-92 = system: HOP-92
HT-29 = system: HT-29
IGROV-1 = system: IGROV-1
K562 = system: K562
KM-20L2 = system: KM-20L2
KM12 = system: KM12
LOX IMVI = system: LOX IMVI
LXFL 529 = system: LXFL 529
M14 = system: M14
M19-MEL = system: M19-MEL
MOLT-4 = system: MOLT-4
Malme-3M = system: Malme-3M
NCI-H226 = system: NCI-H226
NCI-H23 = system: NCI-H23
NCI-H460 = system: NCI-H460
OVCAR-3 = system: OVCAR-3
OVCAR-4 = system: OVCAR-4
OVCAR-5 = system: OVCAR-5
OVCAR-8 = system: OVCAR-8
RPMI-8226 = system: RPMI-8226
RXF 393 = system: RXF 393
SF-268 = system: SF-268
SF-295 = system: SF-295
SF-539 = system: SF-539
SK-MEL-28 = system: SK-MEL-28
SK-MEL-5 = system: SK-MEL-5
SK-OV-3 = system: SK-OV-3
SN12C = system: SN12C
SNB-19 = system: SNB-19
SNB-75 = system: SNB-75
SNB-78 = system: SNB-78
SR = system: SR
SW-620 = system: SW-620
TK-10 = system: TK-10
U-251 = system: U-251
UACC-257 = system: UACC-257
UACC-62 = system: UACC-62
UO-31 = system: UO-31
XF498 = system: XF498
BT-549 = system: BT-549
DU-145 = system: DU-145
Hs-578T = system: Hs-578T
MCF7 = system: MCF7
MDA-MB-231 = system: MDA-MB-231
MDA-MB-435 = system: MDA-MB-435
MDA-N = system: MDA-N
NCI-H522 = system: NCI-H522
NCI/ADR-RES = system: NCI/ADR-RES
PC-3 = system: PC-3
SK-MEL-2 = system: SK-MEL-2
T47D = system: T47D

## CCN(CC)CC(C)C(=O)/C=C/c1ccc(C)cc1 (stereo unspecified)
786-0
  GI50: 1.88 µM (inactive)
A498
  GI50: 4.74 µM (inactive)
A549
  GI50: 3.77 µM (inactive)
ACHN
  GI50: 2.06 µM (inactive)
CAKI-1
  GI50: 1.22 µM (inactive)
CCRF-CEM
  GI50: 3.05 µM (inactive)
COLO 205
  GI50: 1.55 µM (inactive)
DLD-1
  GI50: 1.67 µM (inactive)
DMS-114
  GI50: 1.77 µM (inactive)
DMS-273
  GI50: 2.23 µM (inactive)
EKVX
  GI50: 13.8 µM (inactive)
HCC 2998
  GI50: 3.13 µM (inactive)
HCT-116
  GI50: 1.73 µM (inactive)
HCT-15
  GI50: 2.53 µM
HL-60
  GI50: 3.48 µM (inactive)
HOP-18
  GI50: 10.5 µM (inactive)
HOP-62
  GI50: 18.4 µM (inactive)
HOP-92
  GI50: 2.32 µM (inactive)
HT-29
  GI50: 1.85 µM (inactive)
IGROV-1
  GI50: 2.2 µM (inactive)
K562
  GI50: 3.24 µM (inactive)
KM-20L2
  GI50: 10 µM (inactive)
KM12
  GI50: 0.502 µM (active)
LOX IMVI
  GI50: 1.29 µM (inactive)
LXFL 529
  GI50: 1.76 µM (inactive)
M14
  GI50: 2.2 µM (inactive)
M19-MEL
  GI50: 1.67 µM (inactive)
MOLT-4
  GI50: 2.52 µM (inactive)
Malme-3M
  GI50: 2.81 µM (inactive)
NCI-H226
  GI50: 16.6 µM (inactive)
NCI-H23
  GI50: 6.31 µM (inactive)
NCI-H460
  GI50: 4.83 µM (inactive)
OVCAR-3
  GI50: 4.2 µM (inactive)
OVCAR-4
  GI50: 2.23 µM (inactive)
OVCAR-5
  GI50: 14.8 µM (inactive)
OVCAR-8
  GI50: 2.07 µM (inactive)
RPMI-8226
  GI50: 1.64 µM (inactive)
RXF 393
  GI50: 2.19 µM (inactive)
SF-268
  GI50: 2.1 µM (inactive)
SF-295
  GI50: 15 µM (inactive)
SF-539
  GI50: 2.05 µM (inactive)
SK-MEL-28
  GI50: 1.85 µM (inactive)
SK-MEL-5
  GI50: 5.02 µM (inactive)
SK-OV-3
  GI50: 17 µM (inactive)
SN12C
  GI50: 1.63 µM (inactive)
SNB-19
  GI50: 16.7 µM (inactive)
SNB-75
  GI50: 1.66 µM (inactive)
SNB-78
  GI50: 4.59 µM (inactive)
SR
  GI50: 2.48 µM (inactive)
SW-620
  GI50: 1.57 µM (inactive)
TK-10
  GI50: 2.03 µM (inactive)
U-251
  GI50: 1.76 µM (inactive)
UACC-257
  GI50: 2.23 µM (inactive)
UACC-62
  GI50: 3.3 µM (inactive)
UO-31
  GI50: 13.5 µM (inactive)
XF498
  GI50: 1.54 µM (inactive)

## [N-]=[N+]=CC(=O)CCC(N)C(=O)O (stereo unspecified)
786-0
  GI50: 2.14 µM (inactive)
A498
  GI50: 24.8 µM (inactive)
A549
  GI50: 1.01 µM (active)
ACHN
  GI50: 1.06 µM (active)
BT-549
  GI50: 34.6 µM (inactive)
CAKI-1
  GI50: 3.8 µM (inactive)
CCRF-CEM
  GI50: 0.676 µM (active)
COLO 205
  GI50: 1.15 µM (inactive)
DLD-1
  GI50: 1.02 µM (active)
DMS-114
  GI50: 1.87 µM (inactive)
DMS-273
  GI50: 1.09 µM (active)
DU-145
  GI50: 1.75 µM (inactive)
EKVX
  GI50: 4.83 µM (inactive)
HCC 2998
  GI50: 1.67 µM (inactive)
HCT-15
  GI50: 0.815 µM
HL-60
  GI50: 1.72 µM (inactive)
HOP-18
  GI50: 43.3 µM (inactive)
HOP-62
  GI50: 1.31 µM (inactive)
HOP-92
  GI50: 13.8 µM (inactive)
HT-29
  GI50: 0.385 µM (active)
Hs-578T
  GI50: 62.2 µM (inactive)
IGROV-1
  GI50: 1.92 µM (inactive)
K562
  GI50: 1.32 µM (inactive)
KM-20L2
  GI50: 0.226 µM (active)
KM12
  GI50: 0.541 µM (active)
LOX IMVI
  GI50: 0.689 µM (active)
M14
  GI50: 1.33 µM (inactive)
M19-MEL
  GI50: 1.59 µM (inactive)
MCF7
  GI50: 0.474 µM (active)
MDA-MB-231
  GI50: 8.63 µM (inactive)
MDA-MB-435
  GI50: 1.75 µM (inactive)
MDA-N
  GI50: 1.32 µM (inactive)
MOLT-4
  GI50: 0.721 µM (active)
Malme-3M
  GI50: 6.38 µM (inactive)
NCI-H226
  GI50: 39.6 µM (inactive)
NCI-H23
  GI50: 4.42 µM (inactive)
NCI-H460
  GI50: 1.38 µM (inactive)
NCI-H522
  GI50: 3.01 µM (inactive)
NCI/ADR-RES
  GI50: 8.38 µM (inactive)
OVCAR-4
  GI50: 29.9 µM (inactive)
OVCAR-5
  GI50: 4.86 µM (inactive)
OVCAR-8
  GI50: 2.02 µM (inactive)
PC-3
  GI50: 0.741 µM (active)
RPMI-8226
  GI50: 3.54 µM (inactive)
RXF 393
  GI50: 8.18 µM (inactive)
SF-268
  GI50: 1.25 µM (inactive)
SF-295
  GI50: 1.28 µM (inactive)
SF-539
  GI50: 0.482 µM (active)
SK-MEL-28
  GI50: 2.8 µM (inactive)
SK-MEL-2
  GI50: 53.7 µM (inactive)
SK-MEL-5
  GI50: 1.22 µM (inactive)
SK-OV-3
  GI50: 1.35 µM (inactive)
SN12C
  GI50: 2.77 µM (inactive)
SNB-19
  GI50: 8.71 µM (inactive)
SNB-75
  GI50: 23.1 µM (inactive)
SNB-78
  GI50: 4.25 µM (inactive)
SR
  GI50: 0.809 µM (active)
SW-620
  GI50: 2.31 µM (inactive)
T47D
  GI50: 18.7 µM (inactive)
TK-10
  GI50: 2.07 µM (inactive)
U-251
  GI50: 1.55 µM (inactive)
UACC-257
  GI50: 11 µM (inactive)
UACC-62
  GI50: 2.88 µM (inactive)
UO-31
  GI50: 5.12 µM (inactive)
XF498
  GI50: 22 µM (inactive)
